Assay results as given in patent US20030166583A1, “Dermal cytochrome P450 1A inhibitors and enhancers” (priority 2002, published 2003).
“Also recorded” adds a separate entry of the source. Like-named read-outs stand apart in the source and are kept apart here.

How the values were obtained:
CYP1A [1] = assay: Liver microsomal CYP1A enzymatic activity, inhibition or enhancement; details: nude, mouse
liver CYP1A [2] = assay: as above; details: at certain concentration (1, 10 or 100 μM)
CYP1A [3] = assay: Dermal microsomal CYP1A enzymatic activity (7-ethoxyresorufin-O-deethylase), inhibition or enhancement; details: nude, mouse
Source text: (§1) Nude mice were sacrificed by decapitation.
(§2) The precipitate containing the microsomes was obtained.

dermal CYP1A = assay: as above; details: for inhibitory effect on dermal CYP1A activity, in words: at certain concentration (1, 10 or 100 μM); for enhancing effect on dermal CYP1A activity, in words: at certain concentrations (1, 10 or 100 μM)
Source text: as §1, §2

liver CYP1A [4] = tested on: liver CYP1A
[5] = liver microsomes, pH 7.8, probe 7-ethoxyresorufin
[6] = pH 7.8, dermal CYP1A activity (% of control group)
[7] = pH 7.8, inhibition of dermal CYP1A activity

| SMILES | activity at 10 min, 1 µM (CYP1A [1]; [5]) | activity at 10 min, 10 µM (CYP1A [1]; [5]) | activity at 10 min, 100 µM (CYP1A [1]; [5]) | inhibitory effect on liver CYP1A activity, in words (liver CYP1A [2]) | inhibitory effect on dermal CYP1A activity, in words (dermal CYP1A) | enhancing effect on liver CYP1A activity, in words (liver CYP1A [2]) | activity at 10 min, 1 µM (CYP1A [3]; pH 7.8) | activity at 10 min, 10 µM (CYP1A [3]; pH 7.8) | activity at 10 min, 100 µM (CYP1A [3]; pH 7.8) | inhibition at 10 min, 100 µM (CYP1A [3]; pH 7.8) | also measured |
| --- | --- | --- | --- | --- | --- | --- | --- | --- | --- | --- | --- |
| CC1(C)CC[C@]2(C(=O)O)CC[C@]3(C)C(=CC[C@@H]4[C@@]5(C)CC[C@H](O)C(C)(C)[C@@H]5CC[C@]43C)[C@@H]2C1 [Oleanolic acid] | 94% | 99.9% | 87.3% | inhibitory effects | inhibition effects | – | – | – | – | – | activity at 10 min, 1 µM (CYP1A [3]; skin (dermal) microsomes, pH 7.8, probe 7-ethoxyresorufin, dermal CYP1A activity (% of control group), compound 1 μM, skin microsomes, mean of at least 3 repeats): 24%; activity at 10 min, 10 µM (CYP1A [3]; skin (dermal) microsomes, pH 7.8, probe 7-ethoxyresorufin, dermal CYP1A activity (% of control group), compound 10 μM, skin microsomes, mean of at least 3 repeats): 25.7%; activity at 10 min, 100 µM (CYP1A [3]; skin (dermal) microsomes, pH 7.8, probe 7-ethoxyresorufin, dermal CYP1A activity (% of control group), compound 100 μM, skin microsomes, mean of at least 3 repeats): 46.7%; inhibition at 10 min, 1 µM (CYP1A [3]; skin (dermal) microsomes, pH 7.8, probe 7-ethoxyresorufin, inhibition of dermal CYP1A activity, compound 1 μM): ~76% |
| O=c1c(-c2ccc(O)cc2)coc2cc(O)cc(O)c12 [Genistein] | 109% | 108% | 109% | – | inhibition effects | enhancing effect | 77.4% | 60.2% | 35.4% | ~65% | – |
| C[C@@H]1O[C@@H](Oc2c(-c3ccc(O)c(O)c3)oc3cc(O)cc(O)c3c2=O)[C@H](O)[C@H](O)[C@H]1O [Quercitrin] | – | 104% | 89.2% | inhibitory effects | inhibition effects | enhancing effect | 87.8% | 77.1% | 75% | ~25% | activity at 10 min, 1 µM (CYP1A [1]; pH 7.8): 109% |
| O=c1c(-c2ccc(O)cc2)coc2cc(O[C@@H]3O[C@H](CO)[C@@H](O)[C@H](O)[C@H]3O)ccc12 [Daidzin] | 110% | 112% | 111% | – | inhibition effects | enhancing effect | 111% | 84.2% | 70.4% | ~30% | enhancing effect on dermal CYP1A activity, in words (dermal CYP1A): enhancing effects |
| O=c1cc(-c2ccccc2)oc2c1ccc1ccccc12 [Alpha-NF, α-naphthoflavone] | – | – | – | – | – | – | – | – | – | – | liver CYP1A activity (% of control group) (liver CYP1A [4]; 1 µM): 32.91%; liver CYP1A activity (% of control group) (liver CYP1A [4]; 10 µM): 11.06%; liver CYP1A activity (% of control group) (liver CYP1A [4]; 100 µM): 7.77%; dose dependence of the inhibitory effect on dermal CYP1A (dermal CYP1A): dose-dependent; inhibition of dermal microsomal CYP1A activity (dermal CYP1A): more than 90%; dermal CYP1A activity (% of control group) (dermal CYP1A; 100 µM): 0.83% |
| O=c1c(O)c(-c2ccc(O)cc2)oc2cc(O)cc(O)c12 [Kaempferol] | 100% | 68.9% | 18.1% | inhibitory effects; also recorded: most inhibitory effect; also recorded: most effective inhibitors | – | – | – | – | – | – | inhibition at 10 min, 100 µM (CYP1A [1]; [5]): ~82%; activity at 10 min, 1 µM (CYP1A [3]; [6]): ~34%; activity at 10 min, 10 µM (CYP1A [3]; [6]): ~22%; activity at 10 min, 100 µM (CYP1A [3]; [6]): 0%; inhibition at 10 min, 100 µM (CYP1A [3]; [7]): > 90%; dose dependence of the inhibitory effect on dermal CYP1A (dermal CYP1A): dose-dependent effect; dermal CYP1A activity (% of control group) (dermal CYP1A; nude, mouse, 10 min, 1 µM, pH 7.8): 33.73%; dermal CYP1A activity (% of control group) (dermal CYP1A; nude, mouse, 10 min, 10 µM, pH 7.8): 22.35% |
| O=c1c(O[C@@H]2O[C@H](CO)[C@@H](O)[C@H](O)[C@H]2O)c(-c2ccc(O)c(O)c2)oc2cc(O)cc(O)c12 [Isoquercitrin] | 99% | 104% | 95.7% | inhibitory effects | inhibition effects | enhancing effect | – | – | – | – | activity at 10 min, 1 µM (CYP1A [3]; [6]): 112%; activity at 10 min, 10 µM (CYP1A [3]; [6]): 67%; activity at 10 min, 100 µM (CYP1A [3]; [6]): 44.2%; inhibition at 10 min, 100 µM (CYP1A [3]; [7]): ~56%; enhancing effect on dermal CYP1A activity, in words (dermal CYP1A): enhancing effects |
| CC(=O)OCCCc1ccccc1 [3-Phenyl propyl acetate, 3-phenylpropyl acetate] | 151% | 143% | 157% | – | – | enhancing effect; also recorded: most enhancing effect | 28.3% | 89.4% | 85% | – | enhancing effect on liver CYP1A activity, in words (liver CYP1A [2]; listed as 3-phenylpryl acetate): enhancing effect; inhibition at 10 min, 1 µM (CYP1A [3]; pH 7.8): ~72% |
| CC(Cc1ccc(O)c(O)c1)C(C)Cc1ccc(O)c(O)c1 (centres unmarked) [Nordihydroguaiaretic acid] | 140% | 147% | 119% | – | – | enhancing effect; also recorded: most enhancing effect | 110% | 96.6% | 59.5% | ~41% | – |
| C=CC(=C)CCC=C(C)C [Beta-Myrcene] | 82% | 98% | 100% | inhibitory effects | – | enhancing effect | 101% | 78.2% | 73.6% | ~26% | – |
| CC1(C)[C@@H](O[C@H]2O[C@H](C(=O)O)[C@@H](O)[C@H](O)[C@H]2O[C@@H]2O[C@H](C(=O)O)[C@@H](O)[C@H](O)[C@H]2O)CC[C@]2(C)[C@H]3C(=O)C=C4[C@@H]5C[C@@](C)(C(=O)O)CC[C@]5(C)CC[C@@]4(C)[C@]3(C)CC[C@@H]12 [Glycyrrihizin, Glycyrrhizin] | 118% | 99.9% | 89.1% | inhibitory effects | – | enhancing effect | 98.9% | 102% | 107% | – | – |
| C[C@@]12C[C@@]3(O)O[C@@H](O1)[C@]1(COC(=O)c4ccccc4)[C@H]3C[C@@]12O[C@@H]1O[C@H](CO)[C@@H](O)[C@H](O)[C@H]1O [Paeoniflorin] | 123% | 124% | 121% | – | – | enhancing effect | – | – | – | – | activity at 10 min, 1 µM (CYP1A [3]; [6]): 91%; activity at 10 min, 10 µM (CYP1A [3]; [6]): 105%; activity at 10 min, 100 µM (CYP1A [3]; [6]): 104% |
| COc1ccc(-c2cc(=O)c3c(O)cc(O[C@@H]4O[C@H](CO[C@@H]5O[C@@H](C)[C@H](O)[C@@H](O)[C@H]5O)[C@@H](O)[C@H](O)[C@H]4O)cc3o2)cc1O [Diosmin] | 108% | 97.3% | 43.8% | inhibitory effects | – | enhancing effect | 64.3% | 54.3% | 32.9% | ~67% | – |
| C[C@@H]1O[C@@H](OC[C@H]2O[C@@H](Oc3c(-c4ccc(O)c(O)c4)oc4cc(O)cc(O)c4c3=O)[C@H](O)[C@@H](O)[C@@H]2O)[C@H](O)[C@H](O)[C@H]1O [Rutin] | 117% | 124% | 90.7% | inhibitory effects | inhibition effects | enhancing effect | – | – | – | – | activity at 10 min, 1 µM (CYP1A [3]; [6]): 94.1%; activity at 10 min, 10 µM (CYP1A [3]; [6]): 98.4%; activity at 10 min, 100 µM (CYP1A [3]; [6]): 59.2%; inhibition at 10 min, 100 µM (CYP1A [3]; [7]): ~41%; enhancing effect on dermal CYP1A activity, in words (dermal CYP1A): enhancing effects |
